Data taken from US8530621B2, “Combined preparation of a thiazide diuretic and a loop diuretic” (The Regents of the University of California, priority 2007, dated 2013).
Substitutions are numbered along the chain they refer to. Names may count otherwise. Each block holds one molecule with its values, some of them ahead of it. Non-standard residues stand in square brackets, D forms with d. Residues, ends and D or L forms follow the SMILES beside them. No end group written: not given here. pY = N[C@@H](Cc1ccc(OP(=O)(O)O)cc1)C(=O)O

Assays:
[1] = Solubility of peptide at the concentrations used for NMR; type: physicochemical
From the text: NMR studies of the interaction with full-length β3 cytoplasmic tail were more challenging. The off-rates of the complex correspond to an ‘intermediate exchange’ regime, with peaks broadening and disappearing rather than changing position. It was, however, possible to define perturbed residues by plotting the percentage decrease in peak height upon addition of the peptide (FIGS. 1D and 8). The perturbed residues are essentially the sum of those affected by the MD peptide and the MP peptide (FIGS. 1 and 8). The β3 tail/talin F3 interactions can thus be considered in two parts, one corresponding to the previously defined interaction at the MD-site, the other corresponding to the MP-site. […] This, together with exchange broadening of lines, made the β3 tail an unsuitable ligand for studying the structure of the talin-integrin complex by NMR at atomic resolution.

talin F3 = target: T1, talin F3 (Mus musculus, UniProt P26039); experiment: 1H-15N HSQC NMR titration of talin F3 with peptides; type: binding; details: for perturbation of contact residues in the MP region: mutant chimeric peptides added to wild-type talin F3, MD site binding unchanged
T1 construct: labeled talin F3 domain was expressed and purified as described previously (de Pereda et al., 2005); made in house
Experimental: (§1) Talin F3 L325R and Q381V mutants were titrated with the original β3/PIPKIγ chimera, while the effect of peptide mutations (F727A and F730A) was assessed using wild-type talin F3.
We set out to obtain a structural explanation for the unusual ability of the talin PTB domain to activate integrins. An initial exploration of the interactions was carried out by adding various tail-derived β3-integrin peptides to the F3 sub-domain of talin, while monitoring the chemical shift perturbations in ^1H-^15N HSQC NMR spectra. The peptide sequences and the nomenclature used are set out in FIG. 1A. The MP peptide corresponds to the N-terminal region of the cytoplasmic β-tail. A peptide comprised of the β-tail region previously visualized in the crystal structure (Garcia-Alvarez et al., 2003), is denoted MD; this peptide primarily causes chemical shift perturbations in strand S5 (de Pereda et al., 2005).
(§2) ^1H-^15N-HSQC titrations were performed as previously described (de Pereda et al., 2005). Weighted shifts (Δδ(HN,N)) were calculated using the equation: Δδ(HN,N)=((ΔδHNWHN)^2+(ΔδNWN)^2)^1/2, where WHN and WN are weighting factors for the HN and N shifts respectively (WHN=1, WN=0.154) (Ayed et al., 2001) and Δδ=δbound−δfree. Talin F3 domains in complex with slow-exchanging peptides, as well as mutant F3 domains, were assigned by correlation to the wild-type talin F3 assignments (de Pereda et al., 2005) and confirmed using 3D gradient-enhanced [^1H-^15N]-NOESY-HSQC (τm=100 ms) spectra alone, or in combination with [^1H-^15N]-TOCSY-HSQC (τm=70 ms) spectra. ^13CO, ^13Cα and ^13Cβ shifts were obtained using a series of 2D ^1H-^15N-^13C experiments (Bersch et al., 2003). Bound peptide shifts were obtained using U—^15N,^2H F3 and unlabeled chimeric peptide (1.3:1). Both bound and unbound chimeric peptide shifts were assigned using 2D NOESY, TOCSY and COSY spectra. DOK PTB domain assignments were obtained previously (unpublished).

β3/PIPKIγ chimera = experiment: 1H-15N HSQC NMR titration of talin F3 mutants with chimeric peptide; details: talin F3 mutants titrated with the original β3/PIPKIγ chimera; MD site binding unchanged
Experimental: as §1
Mutations to the contact residues in talin F3 (L325R, S365D, S379R, or Q381V) were also made to see if they disrupted the F3/MP interaction.
as §2

Talin F3 W359A = target: T2, Talin F3 W359A (Mus musculus, UniProt P26039, W359A); experiment: Isothermal titration calorimetry, chimeric peptide binding to talin F3 mutant; details: ITC, relative to wild type talin F3
T2 construct: injected into the cell containing wildtype or mutant talin F3 domain; made in house
Experimental: Peptide concentrations were typically at 150 to 300 μM while protein concentrations ranged from 25 to 50 μM. For the W359A mutant, the protein concentration was 50 μM and the peptide concentration was 1 mM. Prior to ITC titrations, the peptides and proteins were in buffer consisting of 200 mM Tris, 300 mM NaCl, pH 7.5. All experiments were conducted at 23 degrees Celsius. […] The bottom panel is the binding curve, calculated using the software program Origin.
Thermodynamic parameters for the binding of WT and mutant talin F3 to the β3 chimeric peptides were measured using isothermal titration calorimetry (Table 2, FIG. 12). In general, mutations that disrupt the MP site, either in the β-tail or talin F3, have relatively little effect on the Kd values (Table 2). This probably arises because of a balance between enthalpy gain and entropy loss, consistent with stabilization of the MP helix on talin binding in the wild-type but not mutant structures. In sharp contrast, the talin (W359A) mutant, which inhibits binding of the MD-site of the β3 tail, reduced the affinity ˜1000 fold, similar to the effect of mutations in the NPxY region of the integrin tail, which abrogate MD binding (Ulmer et al., 2003).
Isothermal titration calorimetry (ITC) was performed on a VP-ITC calorimeter (Microcal, Northampton, Mass.). […] Experimental data were analyzed using Microcal Origin software.

T1 sequence (P26039 309-405 limits assumed): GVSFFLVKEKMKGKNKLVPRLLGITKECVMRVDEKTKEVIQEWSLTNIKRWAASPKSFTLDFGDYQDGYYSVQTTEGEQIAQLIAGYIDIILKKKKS
Chain of β3/PIPKIγ chimera (as listed by the source, change not shown): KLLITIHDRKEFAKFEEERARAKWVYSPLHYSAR

solubility [1]: limited solubility
Molecule: KLLITIHDRKEFAKFEEERARAKWDTANNPLYKEATSTFTNITYRGT [full-length β3 tail]

perturbation of contact residues in the MP region (talin F3): undetectable
Molecule: CC[C@H](C)[C@H](NC(=O)[C@H](CC(C)C)NC(=O)[C@H](CC(C)C)NC(=O)[C@H](CCCCN)NC(=O)[C@@H](N)CCCCN)C(=O)N[C@H](C(=O)N[C@H](C(=O)N[C@@H](Cc1c[nH]cn1)C(=O)N[C@@H](CC(=O)O)C(=O)N[C@@H](CCCNC(=N)N)C(=O)N[C@@H](CCCCN)C(=O)N[C@@H](CCC(=O)O)C(=O)N[C@@H](Cc1ccccc1)C(=O)N[C@@H](C)C(=O)N[C@@H](CCCCN)C(=O)N[C@@H](C)C(=O)N[C@@H](CCC(=O)O)C(=O)N[C@@H](CCC(=O)O)C(=O)N[C@@H](CCC(=O)O)C(=O)N[C@@H](CCCNC(=N)N)C(=O)N[C@@H](C)C(=O)N[C@@H](CCCNC(=N)N)C(=O)N[C@@H](C)C(=O)N[C@@H](CCCCN)C(=O)N[C@@H](Cc1c[nH]c2ccccc12)C(=O)N[C@H](C(=O)N[C@@H](Cc1ccc(OP(=O)(O)O)cc1)C(=O)N[C@@H](CO)C(=O)N1CCC[C@H]1C(=O)N[C@@H](CC(C)C)C(=O)N[C@@H](Cc1c[nH]cn1)C(=O)N[C@@H](Cc1ccc(O)cc1)C(=O)N[C@@H](CO)C(=O)N[C@@H](C)C(=O)N[C@@H](CCCNC(=N)N)C(=O)O)C(C)C)[C@@H](C)CC)[C@@H](C)O [β3 chimera F730A] (H-KKLLITIHDRKEFAKAEEERARAKWV[pY]SPLHYSAR-OH; N-terminus and C-terminus assumed)

perturbation of contact residues in the MP region (talin F3): markedly reduced
Molecule: CC[C@H](C)[C@H](NC(=O)[C@H](CC(C)C)NC(=O)[C@H](CC(C)C)NC(=O)[C@H](CCCCN)NC(=O)[C@@H](N)CCCCN)C(=O)N[C@H](C(=O)N[C@H](C(=O)N[C@@H](Cc1c[nH]cn1)C(=O)N[C@@H](CC(=O)O)C(=O)N[C@@H](CCCNC(=N)N)C(=O)N[C@@H](CCCCN)C(=O)N[C@@H](CCC(=O)O)C(=O)N[C@@H](C)C(=O)N[C@@H](C)C(=O)N[C@@H](CCCCN)C(=O)N[C@@H](Cc1ccccc1)C(=O)N[C@@H](CCC(=O)O)C(=O)N[C@@H](CCC(=O)O)C(=O)N[C@@H](CCC(=O)O)C(=O)N[C@@H](CCCNC(=N)N)C(=O)N[C@@H](C)C(=O)N[C@@H](CCCNC(=N)N)C(=O)N[C@@H](C)C(=O)N[C@@H](CCCCN)C(=O)N[C@@H](Cc1c[nH]c2ccccc12)C(=O)N[C@H](C(=O)N[C@@H](Cc1ccc(OP(=O)(O)O)cc1)C(=O)N[C@@H](CO)C(=O)N1CCC[C@H]1C(=O)N[C@@H](CC(C)C)C(=O)N[C@@H](Cc1c[nH]cn1)C(=O)N[C@@H](Cc1ccc(O)cc1)C(=O)N[C@@H](CO)C(=O)N[C@@H](C)C(=O)N[C@@H](CCCNC(=N)N)C(=O)O)C(C)C)[C@@H](C)CC)[C@@H](C)O [β3 chimera F727A] (H-KKLLITIHDRKEAAKFEEERARAKWV[pY]SPLHYSAR-OH; N-terminus and C-terminus assumed)

reduction of affinity for the β3 chimeric peptide (Talin F3 W359A): ~1000 fold
B2: talin (W359A): talin F3 domain mutant W359A, inhibits binding of the MD-site of the β3 tail (protein)
chain: GVSFFLVKEKMKGKNKLVPRLLGITKECVMRVDEKTKEVIQEWSLTNIKRAAASPKSFTLDFGDYQDGYYSVQTTEGEQIAQLIAGYIDIILKKKKS

Continued, molecule first:

Molecule: CC[C@H](C)[C@H](NC(=O)[C@H](CC(C)C)NC(=O)[C@H](CC(C)C)NC(=O)[C@H](CCCCN)NC(=O)[C@@H](N)CCCCN)C(=O)N[C@H](C(=O)N[C@H](C(=O)N[C@@H](Cc1c[nH]cn1)C(=O)N[C@@H](CC(=O)O)C(=O)N[C@@H](CCCNC(=N)N)C(=O)N[C@@H](CCCCN)C(=O)N[C@@H](CCC(=O)O)C(=O)N[C@@H](Cc1ccccc1)C(=O)N[C@@H](C)C(=O)N[C@@H](CCCCN)C(=O)N[C@@H](Cc1ccccc1)C(=O)N[C@@H](CCC(=O)O)C(=O)N[C@@H](CCC(=O)O)C(=O)N[C@@H](CCC(=O)O)C(=O)N[C@@H](CCCNC(=N)N)C(=O)N[C@@H](C)C(=O)N[C@@H](CCCNC(=N)N)C(=O)N[C@@H](C)C(=O)N[C@@H](CCCCN)C(=O)N[C@@H](Cc1c[nH]c2ccccc12)C(=O)N[C@H](C(=O)N[C@@H](Cc1ccc(OP(=O)(O)O)cc1)C(=O)N[C@@H](CO)C(=O)N1CCC[C@H]1C(=O)N[C@@H](CC(C)C)C(=O)N[C@@H](Cc1c[nH]cn1)C(=O)N[C@@H](Cc1ccc(O)cc1)C(=O)N[C@@H](CO)C(=O)N[C@@H](C)C(=O)N[C@@H](CCCNC(=N)N)C(=O)O)C(C)C)[C@@H](C)CC)[C@@H](C)O [β3 chimera] (H-KKLLITIHDRKEFAKFEEERARAKWV[pY]SPLHYSAR-OH; N-terminus and C-terminus assumed)
binding to talin (NMR) (talin F3; 25° C.): bind to talin and form a tight, highly soluble 1:1 complex

B1: F3-Q381V: talin F3 domain mutant Q381V (protein)
chain: B2 chain with A51W, Q73V
perturbation of contact residues in the MP region (β3/PIPKIγ chimera): markedly reduced

B3: F3-L325R: talin F3 domain mutant L325R (protein)
chain: B2 chain with L17R, A51W
perturbation of contact residues in the MP region (β3/PIPKIγ chimera): undetectable
